Values of other authors as cited in US9376461B2, “Non-enzymatic synthesis of O-acetyl-ADP-ribose and analogues thereof” (GlaxoSmithKline LLC, priority 2011, dated 2016).

Test system: starfish oocyte maturation
Conditions: infusion (microinjection) of OAADPR, presumably as the mixture of 2′ and 3′ isomers

2′- and 3′-O-Acetyl-ADP-ribose [OAADPR]
effect on starfish oocyte maturation: delayed or halted
